The text below walks through data of patent US10858368B2, “Modulators of the 5-hydroxytryptamine receptor 7 and their method of use” (Temple University—Of The Commonwealth System of Higher …, priority 2016, dated 2020).

5HT7 receptors, sequence (P34969 whole entry): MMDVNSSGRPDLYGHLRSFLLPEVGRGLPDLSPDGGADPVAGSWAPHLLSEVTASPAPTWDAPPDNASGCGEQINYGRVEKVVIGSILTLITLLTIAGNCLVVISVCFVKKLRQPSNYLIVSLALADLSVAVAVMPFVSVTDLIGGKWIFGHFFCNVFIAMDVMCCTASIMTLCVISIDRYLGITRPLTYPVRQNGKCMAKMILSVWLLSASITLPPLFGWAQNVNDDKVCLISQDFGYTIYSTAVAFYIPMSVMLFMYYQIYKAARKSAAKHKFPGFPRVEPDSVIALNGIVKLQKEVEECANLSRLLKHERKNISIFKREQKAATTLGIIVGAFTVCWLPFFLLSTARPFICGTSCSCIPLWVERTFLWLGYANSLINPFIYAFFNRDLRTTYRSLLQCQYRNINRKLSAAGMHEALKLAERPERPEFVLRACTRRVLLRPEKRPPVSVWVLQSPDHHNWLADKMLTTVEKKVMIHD

The experiment concerns the target 5HT7 receptors (Homo sapiens (Human), UniProt P34969). The experiment is described as follows: Radiolabel Binding Studies for Serotonin 5-HT7 Receptors, Method 2 ([3H]-5HT competition; Ki, and percent inhibition at 10 μM). To be noted: single concentration 10 uM; inhibition of radioligand binding to 5HT7 receptors; read-out: 5-HT7 % inhib @ 10 uM. The method, then:
A solution of the compound of the disclosure to be tested is prepared as a 1-mg/ml stock in Assay Buffer or DMSO according to its solubility. A similar stock of the reference compound chlorpromazine is also prepared as a positive control. Eleven dilutions (5× assay concentration) of the compound of the disclosure and chlorpromazine are prepared in the Assay Buffer by serial dilution to yield final corresponding assay concentrations ranging from 10 pM to 10 μM.
A stock concentration of 5 nM [^3H]-5-Hydroxytryptamine ([^3H]-5HT) is prepared in 50 mM Tris-HCl, 10 mM MgCl2, 1 mM EDTA, pH 7.4 (Assay Buffer). Aliquots (50 μl) of radioligand are dispensed into the wells of a 96-well plate containing 100 al of Assay Buffer. Duplicate 50-μl aliquots of the compound of the disclosure test and chlorpromazine positive control reference compound serial dilutions are added.
Membrane fractions of cells expressing recombinant 5HT7 receptors (50 μL) are dispensed into each well. The membranes are prepared from stably transfected cell lines expressing 5HT7 receptors cultured on 10-cm plates by harvesting PBS-rinsed monolayers, resuspending and lysing in chilled, hypotonic 50 mM Tris-HCl, pH 7.4, centrifuging at 20,000×g, decanting the supernatant and storing at −80° C.; the membrane preparations are resuspended in 3 ml of chilled Assay Buffer and homogenized by several passages through a 26 gauge needle before using in the assay.
The 250-μl reactions are incubated at room temperature for 1.5 hours, then harvested by rapid filtration onto 0.3% polyethyleneimine-treated, 96-well filter mats using a 96-well Filtermate harvester. Four rapid 500-μl washes are performed with chilled Assay Buffer to reduce non-specific binding. The filter mats are dried, then scintillant is added to the filters and the radioactivity retained on the filters is counted in a Microbeta scintillation counter.
Raw data (dpm) representing total radioligand binding (i.e., specific+non-specific binding) are plotted as a function of the logarithm of the molar concentration of the competitor (i.e., test or reference compound). Non-linear regression of the normalized (i.e., percent radioligand binding compared to that observed in the absence of test or reference compound) raw data is performed in Prism 4.0 (GraphPad Software) using the built-in three parameter logistic model describing ligand competition binding to radioligand-labeled sites: y=bottom+[(top−bottom)/(1+10×−log IC50)] where bottom equals the residual radioligand binding measured in the presence of 10 μM reference compound (i.e., non-specific binding) and top equals the total radioligand binding observed in the absence of competitor. The log IC50 (i.e., the log of the ligand concentration that reduces radioligand binding by 50%) is thus estimated from the data and used to obtain the Ki by applying the Cheng-Prusoff approximation: Ki=IC50/(1+[ligand]/KD) where [ligand] equals the assay radioligand concentration and KD equals the affinity constant of the radioligand for the target receptor.
Compounds of the disclosure are also screened at a single concentration of 10 μM using the same method described for the Radiolabel Binding Studies for Serotonin 5HT7 receptors to determine the percent inhibition of [^3H]-5HT binding.
On to `Cc1nc2cccc(N3CCN(CCC4CC5(CCN(S(C)(=O)=O)CC5)C(=O)O4)CC3)c2[nH]1` (stereo not shown) [Entry 8], for which the inhibition at 10 µM worked out at 100%.

`CNC(=O)N1CCC2(CC1)CC(CCN1CCN(c3ccc(C)cc3)CC1)OC2=O` (stereo not shown) [Entry 5]: the inhibition at 10 µM stood at 91.6%.

For `Cc1ccc(N2CCN(CCC3CC4(CCN(S(C)(=O)=O)CC4)C(=O)O3)CC2)cc1` (stereo not shown) [Entry 6], the inhibition at 10 µM is 90.5%.

As for `Cc1ccc(N2CCN(CCC3CC4(CCN(Cc5ccccc5)CC4)C(=O)O3)CC2)cc1` (stereo not shown) [Entry 1], the inhibition at 10 µM is 96.5%.

Consider `CC(=O)N1CCC2(CC1)CC(CCN1CCN(c3ccc(C)cc3)CC1)OC2=O` (stereo not shown) [Entry 4], for which the inhibition at 10 µM stood at 88.5%.

In the case of `COC(=O)N1CCC2(CC1)CC(CCN1CCN(c3ccc(C)cc3)CC1)OC2=O` (stereo not shown) [Entry 3], the inhibition at 10 µM is 90%.

For the compound `Cc1ccc(N2CCN(CCC3CC4(CCNCC4)C(=O)O3)CC2)cc1` (stereo not shown) [Entry 2], the inhibition at 10 µM worked out at 88.8%.
